# Values quoted from earlier work as cited in patent US9399657B2, “Chemiluminescent methods and reagents for analyte detection” (priority 2007, dated 2016).
# Target: firefly luciferase (Photinus pyralis, UniProt P08659)
# Settings: read-out: IC50 (inhibitor of firefly luciferase bioluminescence reaction)
# Sequence of firefly luciferase (P08659 whole entry): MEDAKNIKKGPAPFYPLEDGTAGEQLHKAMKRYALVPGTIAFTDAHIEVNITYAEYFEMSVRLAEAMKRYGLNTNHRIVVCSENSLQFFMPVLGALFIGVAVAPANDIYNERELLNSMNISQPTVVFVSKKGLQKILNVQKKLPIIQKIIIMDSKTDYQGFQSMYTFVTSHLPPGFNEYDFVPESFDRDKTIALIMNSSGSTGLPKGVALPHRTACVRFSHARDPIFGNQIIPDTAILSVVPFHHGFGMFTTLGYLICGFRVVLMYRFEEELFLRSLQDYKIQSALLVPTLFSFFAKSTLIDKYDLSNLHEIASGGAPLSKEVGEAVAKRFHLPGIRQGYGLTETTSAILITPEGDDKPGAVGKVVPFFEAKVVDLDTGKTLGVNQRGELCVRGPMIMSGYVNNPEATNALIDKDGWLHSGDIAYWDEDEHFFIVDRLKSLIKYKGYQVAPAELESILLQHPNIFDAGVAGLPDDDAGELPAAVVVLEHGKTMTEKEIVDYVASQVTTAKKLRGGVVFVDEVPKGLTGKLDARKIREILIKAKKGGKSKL
compound,measurement,value
O=C(O)c1csc(-c2nc3ccc(O)cc3s2)n1 [firefly dehydroluciferin],IC50,6 nM
